Patent publication US9072734B2, “Quaternary ammonium salt compounds” (Teijin Pharma Limited, priority 2009, dated 2015)
Counter-ions that a name gives are not always drawn.

Columns and labels:
[1] = biological target: T1, human β2 adrenergic receptor (Homo sapiens, UniProt P07550); experiment: Whole-cell cAMP Flashplate assay using CHO-K1 cells stably expressing human β2 adrenergic receptor; format: cell-based; settings: cAMP production
T1 construct: expressed in transfected cells; host or cells: CHO-K1
T1 sequence (P07550 whole entry): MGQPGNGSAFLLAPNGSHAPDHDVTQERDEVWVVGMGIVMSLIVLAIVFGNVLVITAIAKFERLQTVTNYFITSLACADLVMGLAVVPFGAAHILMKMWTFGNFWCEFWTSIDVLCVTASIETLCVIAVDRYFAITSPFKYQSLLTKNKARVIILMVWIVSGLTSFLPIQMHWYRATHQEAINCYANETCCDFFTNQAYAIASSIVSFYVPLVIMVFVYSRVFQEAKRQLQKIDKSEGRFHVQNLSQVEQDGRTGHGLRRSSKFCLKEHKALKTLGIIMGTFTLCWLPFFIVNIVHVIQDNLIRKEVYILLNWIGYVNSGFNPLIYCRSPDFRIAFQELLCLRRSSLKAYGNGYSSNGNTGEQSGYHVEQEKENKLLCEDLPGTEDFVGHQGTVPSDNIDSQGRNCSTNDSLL

[2] = biological target: T2, human M3 muscarinic receptor (Homo sapiens, UniProt P20309); experiment: Inhibitory effect on methacholine-induced calcium influx, FLIPR assay, CHO-K1 cells stably expressing the human M3 muscarinic receptor; format: cell-based; settings: inhibition of calcium influx induced by methacholine
T2 construct: expressed in transfected cells; host or cells: CHO-K1
T2 sequence (P20309 whole entry): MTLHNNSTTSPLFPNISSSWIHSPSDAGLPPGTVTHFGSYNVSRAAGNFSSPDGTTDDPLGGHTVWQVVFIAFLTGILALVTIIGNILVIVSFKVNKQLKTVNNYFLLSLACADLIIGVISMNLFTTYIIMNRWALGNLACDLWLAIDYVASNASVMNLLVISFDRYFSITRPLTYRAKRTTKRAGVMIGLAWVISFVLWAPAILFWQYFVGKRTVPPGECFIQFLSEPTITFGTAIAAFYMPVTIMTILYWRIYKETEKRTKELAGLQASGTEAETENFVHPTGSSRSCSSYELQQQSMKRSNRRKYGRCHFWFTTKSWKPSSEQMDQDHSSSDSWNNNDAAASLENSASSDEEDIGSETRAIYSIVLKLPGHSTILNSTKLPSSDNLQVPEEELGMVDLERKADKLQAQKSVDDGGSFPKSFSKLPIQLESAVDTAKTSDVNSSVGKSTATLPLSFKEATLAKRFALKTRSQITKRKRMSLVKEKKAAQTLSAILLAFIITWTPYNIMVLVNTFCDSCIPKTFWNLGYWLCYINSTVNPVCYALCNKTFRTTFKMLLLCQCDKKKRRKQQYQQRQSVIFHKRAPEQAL
How it was run: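 Dye-loaded hM3 CHO-K1 cells were preincubated 180 s with compound solutions prepared at 10 two-fold concentrations (0.01–1000 nM). A 30 nM methacholine solution was then added. Fluorescence was traced for 170 s; max−min signal gave % inhibition against agonist and no-agonist controls, and IC50 came from a four-parameter logistic fit.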

COc1cc(NC(=O)CCCc2ccc(-c3ccccc3)c(NC(=O)O[C@@H]3C[C@@H]4[C@H]5O[C@H]5[C@H](C3)[N+]4(C)C)c2)ccc1CNC[C@H](O)c1ccc(O)c2[nH]c(=O)ccc12 [Example 36, (1R,2R,4S,5S,7S)-7-({[5-(3-{[4-({[(2R)-2-hydroxy-2-(8-hydroxy-2-oxo-1,2-dihydroquinolin-5-yl)ethyl]amino}methyl)-3-methoxyphenyl]carbamoyl}propyl)-2-phenylphenyl]carbamoyl}oxy)-9,9-dimethyl-3-oxa-9-azatricyclo[3.3.1.0^2,4]nonan-9-ium trifluoroacetate]
EC50 [1]: 4.3 nM
IC50 [2]: 27.1 nM

C[N+]1(C)[C@@H]2CC(OC(=O)Nc3cc(CCCC(=O)Nc4ccc(CNC[C@H](O)c5ccc(O)c6[nH]c(=O)ccc56)cc4Cl)ccc3-c3ccccc3)C[C@H]1[C@@H]1O[C@@H]12 (stereo partly drawn) [Example 37, (1R,2R,4S,5S,7S)-7-({[5-(3-{[2-chloro-4-({[(2R)-2-hydroxy-2-(8-hydroxy-2-oxo-1,2-dihydroquinolin-5-yl)ethyl]amino}methyl)phenyl]carbamoyl}propyl)-2-phenylphenyl]carbamoyl}oxy)-9,9-dimethyl-3-oxa-9-azatricyclo[3.3.1.0^2,4]nonan-9-ium trifluoroacetate]
EC50 [1]: 4 nM
IC50 [2]: 18.2 nM

COc1cc(CNC[C@H](O)c2ccc(O)c3[nH]c(=O)ccc23)ccc1NC(=O)CCCc1ccc(-c2ccccc2)c(NC(=O)OC2C[C@@H]3[C@H]4O[C@H]4[C@H](C2)[N+]3(C)C)c1 (stereo partly drawn) [Example 38, (1R,2R,4S,5S,7S)-7-({[5-(3-{[4-({[(2R)-2-hydroxy-2-(8-hydroxy-2-oxo-1,2-dihydroquinolin-5-yl)ethyl]amino}methyl)-2-methoxyphenyl]carbamoyl}propyl)-2-phenylphenyl]carbamoyl}oxy)-9,9-dimethyl-3-oxa-9-azatricyclo[3.3.1.0^2,4]nonan-9-ium trifluoroacetate]
EC50 [1]: 10.6 nM
IC50 [2]: 15.6 nM

Cc1cc(CNC[C@H](O)c2ccc(O)c3[nH]c(=O)ccc23)ccc1NC(=O)CCCc1ccc(-c2ccccc2)c(NC(=O)O[C@@H]2C[C@@H]3[C@H]4O[C@H]4[C@H](C2)[N+]3(C)C)c1 [Example 39, (1R,2R,4S,5S,7S)-7-({[5-(3-{[4-({[(2R)-2-hydroxy-2-(8-hydroxy-2-oxo-1,2-dihydroquinolin-5-yl)ethyl]amino}methyl)-2-methylphenyl]carbamoyl}propyl)-2-phenylphenyl]carbamoyl}oxy)-9,9-dimethyl-3-oxa-9-azatricyclo[3.3.1.0^2,4]nonan-9-ium trifluoroacetate]
EC50 [1]: 4 nM
IC50 [2]: 16 nM

COc1cc(CNC[C@H](O)c2ccc(O)c3[nH]c(=O)ccc23)ccc1NC(=O)CCc1ccc(-c2ccccc2)c(NC(=O)O[C@@H]2C[C@@H]3[C@H]4O[C@H]4[C@H](C2)[N+]3(C)C)c1 [Example 41, (1R,2R,4S,5S,7S)-7-({[5-(2-{[4-({[(2R)-2-hydroxy-2-(8-hydroxy-2-oxo-1,2-dihydroquinolin-5-yl)ethyl]amino}methyl)-2-methoxyphenyl]carbamoyl}ethyl)-2-phenylphenyl]carbamoyl}oxy)-9,9-dimethyl-3-oxa-9-azatricyclo[3.3.1.0^2,4]nonan-9-ium trifluoroacetate]
EC50 [1]: 6.2 nM
IC50 [2]: 12.9 nM

COc1cc(NC(=O)CCc2ccc(-c3ccccc3)c(NC(=O)O[C@@H]3C[C@@H]4[C@H]5O[C@H]5[C@H](C3)[N+]4(C)C)c2)ccc1CNC[C@H](O)c1ccc(O)c2[nH]c(=O)ccc12 [Example 42, (1R,2R,4S,5S,7S)-7-({[5-(2-{[4-({[(2R)-2-hydroxy-2-(8-hydroxy-2-oxo-1,2-dihydroquinolin-5-yl)ethyl]amino}methyl)-3-methoxyphenyl]carbamoyl}ethyl)-2-phenylphenyl]carbamoyl}oxy)-9,9-dimethyl-3-oxa-9-azatricyclo[3.3.1.0^2,4]nonan-9-ium trifluoroacetate]
EC50 [1]: 0.8 nM
IC50 [2]: 12.3 nM

Cc1cc(CNC[C@H](O)c2ccc(O)c3[nH]c(=O)ccc23)ccc1NC(=O)CCc1ccc(-c2ccccc2)c(NC(=O)OC2C[C@@H]3[C@H]4O[C@H]4[C@H](C2)[N+]3(C)C)c1 (stereo partly drawn) [Example 43, (1R,2R,4S,5S,7S)-7-({[5-(2-{[4-({[(2R)-2-hydroxy-2-(8-hydroxy-2-oxo-1,2-dihydroquinolin-5-yl)ethyl]amino}methyl)-2-methylphenyl]carbamoyl}ethyl)-2-phenylphenyl]carbamoyl}oxy)-9,9-dimethyl-3-oxa-9-azatricyclo[3.3.1.0^2,4]nonan-9-ium trifluoroacetate]
EC50 [1]: 3 nM
IC50 [2]: 8.5 nM

C[N+]1(C)[C@@H]2CC(OC(=O)Nc3cc(CCC(=O)Nc4ccc(CNC[C@H](O)c5ccc(O)c6[nH]c(=O)ccc56)cc4Cl)ccc3-c3ccccc3)C[C@H]1[C@@H]1O[C@@H]12 (stereo partly drawn) [Example 44, (1R,2R,4S,5S,7S)-7-({[5-(2-{[2-chloro-4-({[(2R)-2-hydroxy-2-(8-hydroxy-2-oxo-1,2-dihydroquinolin-5yl)ethyl]amino}methyl)phenyl]carbamoyl}ethyl)-2-phenylphenyl]carbamoyl}oxy)-9,9-dimethyl-3-oxa-9-azatricyclo[3.3.1.0^2,4]nonan-9-ium trifluoroacetate]
EC50 [1]: 1.7 nM
IC50 [2]: 13.9 nM

C[N+]1(C)[C@@H]2CC(OC(=O)Nc3cc(CCC(=O)Nc4ccc(CNC[C@H](O)c5ccc(O)c6[nH]c(=O)ccc56)c(Cl)c4)ccc3-c3ccccc3)C[C@H]1[C@@H]1O[C@@H]12 (stereo partly drawn) [Example 45, (1R,2R,4S,5S,7S)-7-({[5-(2-{[3-chloro-4-({[(2R)-2-hydroxy-2-(8-hydroxy-2-oxo-1,2-dihydroquinolin-5-yl)ethyl]amino}methyl)phenyl]carbamoyl}ethyl)-2-phenylphenyl]carbamoyl}oxy)-9,9-dimethyl-3-oxa-9-azatricyclo[3.3.1.0^2,4]nonan-9-ium trifluoroacetate]
EC50 [1]: 4.1 nM
IC50 [2]: 26.5 nM

COc1cc(NC(=O)CCc2ccc(-c3ccccc3)c(NC(=O)O[C@@H]3C[C@@H]4[C@H]5O[C@H]5[C@H](C3)[N+]4(C)C)c2)c(Cl)cc1CNC[C@H](O)c1ccc(O)c2[nH]c(=O)ccc12 [Example 46, (1R,2R,4S,5S,7S)-7-({[5-(2-{[2-chloro-4-({[(2R)-2-hydroxy-2-(8-hydroxy-2-oxo-1,2-dihydroquinolin-5-yl)ethyl]amino}methyl)-5-methoxyphenyl]carbamoyl}ethyl)-2-phenylphenyl]carbamoyl}oxy)-9,9-dimethyl-3-oxa-9-azatricyclo[3.3.1.0^2,4]nonan-9-ium trifluoroacetate]
EC50 [1]: 1.4 nM
IC50 [2]: 16.5 nM

CCOc1cc(NC(=O)CCc2ccc(-c3ccccc3)c(NC(=O)OC3C[C@@H]4[C@H]5O[C@H]5[C@H](C3)[N+]4(C)C)c2)ccc1CNC[C@H](O)c1ccc(O)c2[nH]c(=O)ccc12 (stereo partly drawn) [Example 47, (1R,2R,4S,5S,7S)-7-({[5-(2-{[4-({[(2R)-2-hydroxy-2-(8-hydroxy-2-oxo-1,2-dihydroquinolin-5-yl)ethyl]amino}methyl)-3-ethoxyphenyl]carbamoyl}ethyl)-2-phenylphenyl]carbamoyl}oxy)-9,9-dimethyl-3-oxa-9-azatricyclo[3.3.1.0^2,4]nonan-9-ium trifluoroacetate]
EC50 [1]: 1.9 nM
IC50 [2]: 16.5 nM

COc1cc(NC(=O)CCCc2ccc(-c3ccccc3)c(NC(=O)OC3C[C@H]4CC[C@H](C3)[N+]4(C)C)c2)c(Cl)cc1CNC[C@H](O)c1ccc(O)c2[nH]c(=O)ccc12 (stereo partly drawn) [Example 48, (1R,3R)-3-{[5-(3-{[2-chloro-4-({[(2R)-2-hydroxy-2-(8-hydroxy-2-oxo-1,2-dihydroquinolin-5-yl)ethyl]amino}methyl)-5-methoxyphenyl]carbamoyl}propyl)-2-phenylphenyl]carbamoyl}oxy)-8,8-dimethyl-8-azabicyclo[3.2.1]nonan-8-ium trifluoroacetate]
EC50 [1]: 0.4 nM
IC50 [2]: 21.7 nM

C[N+]1(C)CCC(OC(=O)Nc2cc(CCCCC(=O)Nc3ccc(CNC[C@H](O)c4ccc(O)c5[nH]c(=O)ccc45)cc3)ccc2-c2ccccc2)CC1 [Example 49, 4-({[5-(4-{[4-({[(2R)-2-hydroxy-2-(8-hydroxy-2-oxo-1,2-dihydroquinolin-5-yl)ethyl]amino}methyl)phenyl]carbamoyl}butyl)-2-phenylphenyl]carbamoyl}oxy)-1,1-dimethylpiperidin-1-ium trifluoroacetate]
EC50 [1]: 2.3 nM
IC50 [2]: 13.9 nM

C[N+]1(C)[C@@H]2CC(OC(=O)Nc3cc(CCCCC(=O)Nc4ccc(CNC[C@H](O)c5ccc(O)c6[nH]c(=O)ccc56)cc4)ccc3-c3ccccc3)C[C@H]1[C@@H]1O[C@@H]12 (stereo partly drawn) [Example 50, (1R,2R,4S,5S,7S)-7-({[5-(4-{[4-({[(2R)-2-hydroxy-2-(8-hydroxy-2-oxo-1,2-dihydroquinolin-5-yl)ethyl]amino}methyl)phenyl]carbamoyl}butyl)-2-phenylphenyl]carbamoyl}oxy)-9,9-dimethyl-3-oxa-9-azatricyclo[3.3.1.0^2,4]nonan-9-ium trifluoroacetate]
EC50 [1]: 1.7 nM
IC50 [2]: 27.6 nM

COc1cc(NC(=O)CCCCc2ccc(-c3ccccc3)c(NC(=O)OC3C[C@@H]4[C@H]5O[C@H]5[C@H](C3)[N+]4(C)C)c2)c(Cl)cc1CNC[C@H](O)c1ccc(O)c2[nH]c(=O)ccc12 (stereo partly drawn) [Example 52, (1R,2R,4S,5S,7S)-7-({[5-(4-{[2-chloro-4-({[(2R)-2-hydroxy-2-(8-hydroxy-2-oxo-1,2-dihydroquinolin-5-yl)ethyl]amino}methyl)-5-methoxyphenyl]carbamoyl}butyl)-2-phenylphenyl]carbamoyl}oxy)-9,9-dimethyl-3-oxa-9-azatricyclo[3.3.1.0^2,4]nonan-9-ium trifluoro acetate]
EC50 [1]: 0.4 nM
IC50 [2]: 32.8 nM
